Source: a melting point compilation (Tetko et al.; mined from patent text by program, amines drawn as free bases though some values may be those of a salt)

Compared with O=C(c1ccncc1)c1cc(-c2cccnc2)c(N2CCOCC2)s1, Clc1cccc(-c2ncoc2-c2ccncc2)c1 is lower in melting point: 128 °C for the first, 125 to 126 °C for the second.

First: CCCc1nn(-c2ccc(C(F)(F)F)cn2)cc1CCCOc1ccc(CC(=O)O)c(C)c1
Second: CCOC(=O)c1ccc(-c2cnc(-c3ccc(C(F)(F)F)cc3)s2)cc1
The melting point of the first is lower: 134 to 135 °C for the first, 174 to 176 °C for the second.

First: O=C1NC(=O)c2ccccc2/C1=C/Nc1cccc(CN2CCCCCC2)c1
Second: O=Cc1c(F)cccc1N1CCN(Cc2ccccc2)CC1
The melting point of the first is higher: 116 to 117 °C for the first, 94 to 95 °C for the second.

First: CNc1nc(Cl)cc(NS(=O)(=O)c2ccccc2)n1
Second: CC(=O)CC(=O)NC1=Nc2ccc(Cl)cc2C(c2ccccc2)=NCC1
The melting point of the first is higher: 186 to 187 °C for the first, 158 to 159 °C for the second.

First: CCCCc1nc2cc(F)ccc2n1Cc1ccc(C(=O)O)cc1
Second: CC(CC(=O)O)c1ccc(-c2ccc(F)cc2F)cc1 (stereo not drawn)
The melting point of the first is higher: 202 to 204 °C for the first, 109 to 110 °C for the second.

Compared with CC1C(=O)Oc2c1cccc2S(=O)c1ccccc1Cl (stereo not drawn), CC(=O)NCCCC(=O)OC1c2ccccc2C(=O)N1c1ccc2ccc(Cl)nc2n1 (single isomer, unassigned; (+)) is higher in melting point: 120 to 122 °C for the first, 200 °C for the second.

Compared with O=Cc1cc2cc(Cl)c(Cl)cc2nc1Cl, O=Cc1ccc(OCc2ccccn2)cc1O is lower in melting point: 190 to 191 °C for the first, 89.2 to 89.7 °C for the second.

First: COC(=O)c1ccc(C(=O)Nc2nnc(-c3cc(Cl)cc(Cl)c3O)s2)nc1
Second: COC(=O)c1cc(Cl)c(NC(C)=O)cc1OC(C)=O
The melting point of the first is higher: 301 °C for the first, 134 to 136 °C for the second.

First: CC(=O)OC1CSC(Oc2ccc(-c3ccnc(F)c3)nc2Cl)C(OC(C)=O)C1OC(C)=O (stereo not drawn)
Second: CCOc1ccc(-c2nc(-c3ccc(OC4OC(CO)C(O)C(O)C4O)cc3)cs2)cc1OCC (stereo not drawn)
The melting point of the first is higher: 226 °C for the first, 138 to 140 °C for the second.

First: O=C(c1ccc(Cl)cc1)N1CCc2cc(S(=O)(=O)N3CCN(c4cccc(Cl)c4)CC3)ccc21
Second: Clc1ccc(C2(CCBr)OCC(c3ccc(Cl)cc3Cl)O2)cc1 (stereo not drawn)
The melting point of the first is higher: 191 to 192 °C for the first, 82.7 °C for the second.

First: COC(=O)CCC1=C(N)CCC1=O
Second: C[C@H](NC(=O)CC1CCC(=O)CC1)c1ccccc1
The melting point of the first is higher: 223 to 224 °C for the first, 110 to 151 °C for the second.

First: COC1=CC(C)(O)C(CCC(=O)O)C=C1 (stereo not drawn)
Second: CC(C)Cc1cc(OCc2ccccc2)c2c(c1)OC(C)(C)CC2C(=O)O (stereo not drawn)
The melting point of the first is lower: 142 °C for the first, 152 to 153 °C for the second.

First: O=C(Cc1cccc(Oc2ccccc2)c1)Nc1cc(Cl)c(Cl)cc1[N+](=O)[O-]
Second: COc1cc(CCNC(=O)N(C)O)ccc1OCc1ccccc1
The melting point of the first is higher: 135 to 137 °C for the first, 109 to 111 °C for the second.

First: NCc1cccc(OCCSc2nc[nH]n2)c1
Second: CCOP(=O)(Cc1ccnc(C(N)=O)c1)OCC
The melting point of the first is higher: greater than 300 °C for the first, 140 to 142 °C for the second.

CC1(C)CN(c2cccc(-c3cnc4[nH]cc(C(=O)C(C)(C)C)c4n3)c2)C1 and CC(=O)NCc1cccc(Nc2nccc(-c3sc(-c4ccc(C)nc4)nc3C)n2)c1 fall in the same range of melting point: 227 to 229 °C for the first, 227 to 229 °C for the second.

First: CCC(CC)Cn1c(=O)c(=O)[nH]c2cc([N+](=O)[O-])c(-n3cccc3C(=O)OC)cc21
Second: CC(=O)Nc1ccc(C(=O)O)c([N+](=O)[O-])c1
The melting point of the first is higher: 240 to 241 °C for the first, 217 to 220 °C for the second.

Compared with CS(=O)(=O)c1ccc(-c2ccccc2C=C2CCCCC2)cc1, COc1cccc(OC)c1C=CC(=O)c1ccccc1 is lower in melting point: 83 °C for the first, 54.9 to 55.8 °C for the second.

First: O=C(O)COC(c1ccc(Cl)cc1)c1ccc(Cl)cc1
Second: C#CCNC(=O)C(c1ccccc1)c1ccccc1
The melting point of the first is lower: 108 to 110 °C for the first, 131 °C for the second.

Compared with COc1ccc(-c2nc(Cn3cnnc3)nc3cc(OC)c(OC)cc23)cc1, COc1ccc(Cn2c(=O)c(C#N)c(Cl)c3cc(F)cnc32)cc1 is lower in melting point: 212 to 213 °C for the first, 195 °C for the second.

First: CC(CCCC(F)(C(F)(F)F)C(F)(F)F)C1CC(=O)C2=C3CCC4CC(O)CCC4(C)C3CCC21C (stereo not drawn)
Second: O=C1OC(CN2CCC(O)(c3ccc(F)cc3)CC2)CN1c1ccc(F)cc1 (stereo not drawn)
The melting point of the first is higher: 177 to 179 °C for the first, 145 to 147 °C for the second.

First: Cc1c(CNc2cc(CO)cc(CO)c2)nnn1Cc1ccc(Cl)c(Cl)c1
Second: CC1(CC(O)(Cc2ccc(Cl)cc2Cl)c2cccnc2)OCCO1 (stereo not drawn)
The melting point of the first is lower: 120 °C for the first, 136 to 137 °C for the second.

First: Cc1cncc(C)c1-c1c(C)cc(C=Cc2cc(C(C)(C)C)c(O)c(C(C)(C)C)c2)cc1C
Second: CCOC(=O)Nc1nc(C)c(-c2nc3ccccc3c(=O)n2-c2ccc(C)cc2)s1
The melting point of the first is higher: 234 to 235 °C for the first, 220 to 222 °C for the second.

First: O=C(O)c1cc(F)c2cccnc2c1O
Second: Cc1nc2c(O)c(CC[C@@H](O)c3ccc(F)cc3)c(C(=O)N(C)C)cc2n1C
The melting point of the first is higher: 277 to 279 °C for the first, 276 to 277 °C for the second.

First: CSc1cc(C)nc(SC)c1NC(=O)CBr
Second: CC(=O)Nc1nnc(C(F)(F)C(Cl)Cl)s1
The melting point of the first is lower: 171 to 172 °C for the first, 182 to 184 °C for the second.

First: Oc1ccc(-c2cc3c(Cl)c(O)ccc3o2)cc1
Second: CCCCCCCCc1ncc(-c2ccc(O)cc2)cn1
The melting point of the first is higher: 210 to 214 °C for the first, 94 to 96 °C for the second.

First: O=C1NC(O)c2c1c1c3ccccc3[nH]c1c1[nH]c3ccccc3c21 (stereo not drawn)
Second: Cn1cc(C2=C(c3csc4ccccc34)C(=O)NC2=O)c2ccccc21
The melting point of the first is higher: greater than 300 °C for the first, 238 to 241 °C for the second.

Going from Cn1c2ccc(C(=O)c3ccccc3)cc2c2cc(C(=O)c3ccccc3)ccc21 to O=C1Nc2ccccc2SC(c2ccccc2)C1CO (stereo not drawn), the melting point rises from 222 °C to 248 °C.

First: Cn1ncnc1COc1nn2c(-c3ccc(F)cc3)nnc2cc1-c1ccsc1
Second: Cn1ncc2[nH]c3cccc(F)c3c(=O)c21
The melting point of the first is lower: 268 to 269 °C for the first, greater than 300 °C for the second.

First: CC(C)NNc1ncnc2c1cnn2C
Second: COc1cc2c(Nc3ccc(Sc4nccn4C)c(Cl)c3)c(C#N)cnc2cc1-c1csc(CN2CCN(C)CC2)c1
The melting point of the first is lower: 57 °C for the first, 162 to 164 °C for the second.

CCC1(c2ccc(Cl)cc2)OCc2c1cnc(CN(C)C)c2O (stereo not drawn) and C=CC(=O)NCc1c(-c2ccccc2)noc1C cannot be ordered by melting point: 151 °C for the first, 149 to 151 °C for the second.

First: COc1ccccc1/C=C/C(=O)/C=C/c1ccccc1OC
Second: COc1ccc2c(c1)C(Cl)(C(F)(F)F)OC(=O)N2 (stereo not drawn)
The melting point of the first is higher: 124 to 126 °C for the first, 112 to 114 °C for the second.

First: CCCCCCCCCCCCc1nnn(C(C(=O)O)c2ccccc2)n1 (stereo not drawn)
Second: CCCCCCCCCC#CCCCCCCCCCCCO
The melting point of the first is higher: 76 to 78 °C for the first, 38 to 39 °C for the second.

Compared with CCS(=O)(=O)Nc1cc(N=C=S)c(F)cc1Cl, COCCc1cc([N+](=O)[O-])cc([N+](=O)[O-])c1 is lower in melting point: 104 to 105 °C for the first, 65 °C for the second.

Compared with Cc1c2[nH]c(C(=O)O)cc(=O)c2cc2c(=O)cc(C(=O)O)[nH]c12, [N-]=[N+]=NCC1=C(C(=O)O)N2C(=O)C(NC(=O)Cc3csc(=O)s3)C2SC1 (stereo not drawn) is lower in melting point: greater than 310 °C for the first, 160 °C for the second.

First: CCCCCCc1ccc(-n2c(-c3ccc(Br)cc3)ccc2-c2ccc(Br)cc2)cc1
Second: C=CCN(CC=C)C(=O)n1cnc(S(=O)(=O)CCCCC)n1
The melting point of the first is higher: 198 to 199 °C for the first, 28 to 30 °C for the second.

First: Cc1c([N+](=O)[O-])cc2c(c1C)OC(C)(C)C2=O
Second: COc1cc2c(cc1OC)CCCC(C(=O)N1CCN(Cc3cc(OC)c(OC)c(OC)c3)CC1COC(C)=O)=C2 (stereo not drawn)
The melting point of the first is lower: 131 to 132 °C for the first, 135 to 139 °C for the second.

CC(=O)N[C@@H](C)COC1CCN(c2nc3cc(OCC4CC4)ccc3s2)CC1 showed a melting point of 115 to 116 °C.
